Experimental data taken from patent publication US20230021483A1, “[…] […] METHOD AND CLASSIFICATION OF PHARMACEUTICAL COMPONENTS BY USING TRANSCRIPTOMES” (National Institutes of Biomedical Innovation, Health and …, priority 2016, published 2023).
Where “and” joins values, the source holds several entries; their conditions need not be identical. Identical values can stand only once.

Legend:
[1] = literature reports; cited from earlier work
[2] = tested on: preferentially upregulated genes in LV, SP, LN; experiment: Z-score-based differential gene expression analysis (adjuvant group- or adjuvant-associated genes, 40 module mapping, TargetMine annotation); type: in vivo, C57BL/6 mice; set-up: key to z sum, 1458589_at ---: sum of the per-gene fold-change z-scores of the triplicate samples; details: ID
In short: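 Per-sample fold-change values converted to gene-wise z-scores within each organ's data set, then triplicate z-scores summed per adjuvant. Genes with summed score >3 taken as preferentially expressed; gene groups defined by combined per-adjuvant z-score thresholds (z>1 to z>3) specific to each organ.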

Nc1nc2c(ncn2[C@@H]2O[C@@H]3COP(=O)(O)O[C@H]4[C@@H](O)[C@H](n5cnc6c(=O)[nH]c(N)nc65)O[C@@H]4COP(=O)(O)O[C@H]3[C@H]2O)c(=O)[nH]1 [cdiGMP, Cyclic diguanylate monophosphate]
Th response induced [1]: appears to induce Th1 responses
z sum, 1428027_at LOC100653389 ([2]; LN, Modules 26): 3.943
z sum, 1419721_at Niacr1 ([2]; LN, Modules 27): 3.925
z sum, 1418424_at Tnfaip6 ([2]; LN, Modules 29): 3.961
z sum, 1419534_at Olr1 ([2]; LN, Modules 29): 3.953
z sum, 1421457_a_at Samsn1 ([2]; LN, Modules 29): 3.927
z sum, 1422305_at Ifnb1 ([2]; LN, Modules 29): 3.959
z sum, 1423028_at Ifna2 ([2]; LN, Modules 29): 3.966
z sum, 1425837_a_at Ccrn4l ([2]; LN, Modules 29): 3.961
z sum, 1436387_at C330006P03Rik///Homer1 ([2]; LN, Modules 29): 3.967
z sum, 1439349_at Sbno2 ([2]; LN, Modules 29): 3.94
z sum, 1444010_at Eif4e ([2]; LN, Modules 29): 3.936
z sum, 1448325_at Ppp1r15a ([2]; LN, Modules 29): 3.957
z sum, 1449311_at Bach1 ([2]; LN, Modules 29): 3.924
z sum, 1450297_at Il6 ([2]; LN, Modules 29): 3.956
z sum, 1455197_at Rnd1 ([2]; LN, Modules 29): 3.976
z sum, 1455899_x_at Socs3 ([2]; LN, Modules 29): 3.93
z sum, 1417252_at Ptgs2 ([2]; LN, Modules 34): 3.953
z sum, 1417263_at Ptgs2 ([2]; LN, Modules 34): 3.945
z sum, 1419132_at Tfr2 ([2]; LN, Modules 34): 3.95
z sum, 1421473_at Il1a ([2]; LN, Modules 34): 3.96
z sum, 1439981_at Tespa1 ([2]; LN, Modules 35): 3.95
z sum, 1441843_s_at 5230400M03Rik ([2]; LN, Modules 35): 3.967
z sum, 1442556_at --- ([2]; LN, Modules 35): 3.981
z sum, 1443414_at C78513 ([2]; LN, Modules 35): 3.922
z sum, 1444598_at --- ([2]; LN, Modules 35): 3.93
z sum, 1445534_at --- ([2]; LN, Modules 35): 3.938
z sum, 1446245_at --- ([2]; LN, Modules 35): 3.919
z sum, 1457944_at --- ([2]; LN, Modules 35): 3.94
z sum, 1458376_at B930025B16Rik ([2]; LN, Modules 35): 3.963
z sum, 1459144_at --- ([2]; LN, Modules 35): 3.966
z sum, 1425687_at Cflar ([2]; LN, Modules 36): 3.968
z sum, 1427736_a_at Ccrl2 ([2]; LN, Modules 36): 3.958
z sum, 1449169_at Has2 ([2]; LN, Modules 36): 3.922
z sum, 1453636_at Pcgf5 ([2]; LN, Modules 36): 3.972
z sum, 1457888_at --- ([2]; LN, Modules 36): 3.925
z sum, 1419508_at Ripk1 ([2]; LN, Modules 37): 3.938
z sum, 1421578_at Ccl4 ([2]; LN, Modules 37): 3.99
z sum, 1421679_a_at Cdkn1a ([2]; LN, Modules 37): 3.98
z sum, 1424638_at Cdkn1a ([2]; LN, Modules 37): 3.93
z sum, 1433508_at Klf6 ([2]; LN, Modules 37): 3.947
z sum, 1434350_at Csrnp1 ([2]; LN, Modules 37): 3.966
z sum, 1439680_at Tnfsf10 ([2]; LN, Modules 37): 3.927
z sum, 1448724_at Cish ([2]; LN, Modules 37): 3.94
z sum, 1451340_at Arid5a ([2]; LN, Modules 37): 3.953
z sum, 1453851_a_at Gadd45g ([2]; LN, Modules 37): 3.961
z sum, 1457404_at Nfkbiz ([2]; LN, Modules 37): 3.989
z sum, 1458589_at --- ([2]; LN, Modules 37): 3.945
z sum, 1422054_a_at 5kil ([2]; LN, Modules 40): 3.92
z sum, 1428735_at Cd69 ([2]; LN, Modules 40): 3.941
z-score of fold change, 1428027_at LOC100653389 ([2]; LN, samples x1-x3, Modules 26): 1.302 and 1.534 and 1.106
z-score of fold change, 1419721_at Niacr1 ([2]; LN, samples x1-x3, Modules 27): 1.493 and 1.403 and 1.03
z-score of fold change, 1418424_at Tnfaip6 ([2]; LN, samples x1-x3, Modules 29): 1.141 and 1.631 and 1.189
z-score of fold change, 1419534_at Olr1 ([2]; LN, samples x1-x3, Modules 29): 1.484 and 1.094 and 1.375
z-score of fold change, 1421457_a_at Samsn1 ([2]; LN, samples x1-x3, Modules 29): 1.437 and 1.192 and 1.298
z-score of fold change, 1422305_at Ifnb1 ([2]; LN, samples x1-x3, Modules 29): 0.997 and 1.431 and 1.532
z-score of fold change, 1423028_at Ifna2 ([2]; LN, samples x1-x3, Modules 29): 1.076 and 1.31 and 1.58
z-score of fold change, 1425837_a_at Ccrn4l ([2]; LN, samples x1-x3, Modules 29): 1.34 and 1.091 and 1.529
z-score of fold change, 1436387_at C330006P03Rik///Homer1 ([2]; LN, samples x1-x3, Modules 29): 1.372 and 1.437 and 1.158
z-score of fold change, 1439349_at Sbno2 ([2]; LN, samples x1-x3, Modules 29): 1.367 and 1.407 and 1.166
z-score of fold change, 1444010_at Eif4e ([2]; LN, samples x1-x3, Modules 29): 1.659 and 1.049 and 1.227
z-score of fold change, 1448325_at Ppp1r15a ([2]; LN, samples x1-x3, Modules 29): 1.314 and 1.203 and 1.441
z-score of fold change, 1449311_at Bach1 ([2]; LN, samples x1-x3, Modules 29): 1.178 and 1.558 and 1.189
z-score of fold change, 1450297_at Il6 ([2]; LN, samples x1-x3, Modules 29): 1.437 and 0.989 and 1.53
z-score of fold change, 1455197_at Rnd1 ([2]; LN, samples x1-x3, Modules 29): 1.54 and 1.27 and 1.166
z-score of fold change, 1455899_x_at Socs3 ([2]; LN, samples x1-x3, Modules 29): 1.206 and 1.544 and 1.18
z-score of fold change, 1417252_at Ptgs2 ([2]; LN, samples x1-x3, Modules 34): 1.507 and 1.214 and 1.232
z-score of fold change, 1417263_at Ptgs2 ([2]; LN, samples x1-x3, Modules 34): 1.51 and 0.965 and 1.47
z-score of fold change, 1419132_at Tlr2 ([2]; LN, samples x1-x3, Modules 34): 1.576 and 1.128 and 1.246
z-score of fold change, 1421473_at Il1a ([2]; LN, samples x1-x3, Modules 34): 1.525 and 1.178 and 1.257
z-score of fold change, 1439981_at Tespa1 ([2]; LN, samples x1-x3, Modules 35): 1.343 and 1.427 and 1.18
z-score of fold change, 1441843_s_at 5230400M03Rik ([2]; LN, samples x1-x3, Modules 35): 1.442 and 1.354 and 1.171
z-score of fold change, 1442556_at --- ([2]; LN, samples x1-x3, Modules 35): 1.421 and 1.315 and 1.245
z-score of fold change, 1443414_at C78513 ([2]; LN, samples x1-x3, Modules 35): 1.402 and 0.963 and 1.557
z-score of fold change, 1444598_at --- ([2]; LN, samples x1-x3, Modules 35): 1.559 and 1.318 and 1.053
z-score of fold change, 1445534_at --- ([2]; LN, samples x1-x3, Modules 35): 1.345 and 1.515 and 1.078
z-score of fold change, 1446245_at --- ([2]; LN, samples x1-x3, Modules 35): 1.239 and 1.22 and 1.46
z-score of fold change, 1457944_at --- ([2]; LN, samples x1-x3, Modules 35): 1.366 and 1.428 and 1.146
z-score of fold change, 1458376_at B930025B16Rik ([2]; LN, samples x1-x3, Modules 35): 1.188 and 1.502 and 1.273
z-score of fold change, 1459144_at --- ([2]; LN, samples x1-x3, Modules 35): 1.275 and 1.199 and 1.493
z-score of fold change, 1425687_at Cflar ([2]; LN, samples x1-x3, Modules 36): 1.199 and 1.3 and 1.469
z-score of fold change, 1427736_a_at Ccrl2 ([2]; LN, samples x1-x3, Modules 36): 1.328 and 1.075 and 1.554
z-score of fold change, 1449169_at Has2 ([2]; LN, samples x1-x3, Modules 36): 1.306 and 1.158 and 1.458
z-score of fold change, 1453636_at Pcgf5 ([2]; LN, samples x1-x3, Modules 36): 1.332 and 1.143 and 1.496
z-score of fold change, 1457888_at --- ([2]; LN, samples x1-x3, Modules 36): 1.466 and 1.08 and 1.38
z-score of fold change, 1419508_at Ripk1 ([2]; LN, samples x1-x3, Modules 37): 1.035 and 1.437 and 1.467
z-score of fold change, 1421578_at Ccl4 ([2]; LN, samples x1-x3, Modules 37): 1.402 and 1.22 and 1.368
z-score of fold change, 1421679_a_at Cdkn1a ([2]; LN, samples x1-x3, Modules 37): 1.429 and 1.421 and 1.13
z-score of fold change, 1424638_at Cdkn1a ([2]; LN, samples x1-x3, Modules 37): 1.624 and 1.232 and 1.074
z-score of fold change, 1433508_at Klf6 ([2]; LN, samples x1-x3, Modules 37): 1.271 and 1.413 and 1.263
z-score of fold change, 1434350_at Csrnp1 ([2]; LN, samples x1-x3, Modules 37): 1.353 and 1.305 and 1.308
z-score of fold change, 1439680_at Tnfsf10 ([2]; LN, samples x1-x3, Modules 37): 1.169 and 1.36 and 1.399
z-score of fold change, 1448724_at Cish ([2]; LN, samples x1-x3, Modules 37): 1.476 and 1.357 and 1.106
z-score of fold change, 1451340_at Arid5a ([2]; LN, samples x1-x3, Modules 37): 1.5 and 1.292 and 1.161
z-score of fold change, 1453851_a_at Gadd45g ([2]; LN, samples x1-x3, Modules 37): 1.368 and 1.383 and 1.21
z-score of fold change, 1457404_at Nfkbiz ([2]; LN, samples x1-x3, Modules 37): 1.371 and 1.232 and 1.386
z-score of fold change, 1458589_at --- ([2]; LN, samples x1-x3, Modules 37): 1.137 and 1.339 and 1.469
z-score of fold change, 1422054_a_at 5kil ([2]; LN, samples x1-x3, Modules 40): 1.491 and 1.218 and 1.211
z-score of fold change, 1428735_at Cd69 ([2]; LN, samples x1-x3, Modules 40): 1.22 and 1.344 and 1.378
Adar 1425405_a_at (Group G1, Modules 20) ([2]; LV, sample x1): 1.58
Adar 1434268_at (Group G1, Modules 20) ([2]; LV, sample x1): 1.7
Ddx58 1436562_at (Group G1, Modules 20) ([2]; LV, sample x1): 0.94
Ddx58 1456890_at (Group G1, Modules 20) ([2]; LV, sample x1): 1.2
Eif2ak2 1422005_at (Group G1, Modules 20) ([2]; LV, sample x1): 1.02
G3bp2 1421323_a_at (Group G1, Modules 20) ([2]; LV, sample x1): 1.74
Gm9706///Isg15 1431591_s_at (Group G1, Modules 20) ([2]; LV, sample x1): 1.01
H2-T10///H2-T22///H2-T9 1449875_s_at (Group G1, Modules 20) ([2]; LV, sample x1): 1.07
Ifih1 1426276_at (Group G1, Modules 20) ([2]; LV, sample x1): 0.89
Ifit1 1450783_at (Group G1, Modules 20) ([2]; LV, sample x1): 2.21
Ifit3 1449025_at (Group G1, Modules 20) ([2]; LV, sample x1): 1.7
Irf7 1417244_a_at (Group G1, Modules 20) ([2]; LV, sample x1): 0.85
Irgm1 1418825_at (Group G1, Modules 20) ([2]; LV, sample x1): 1.33
Mndal 1426906_at (Group G1, Modules 20) ([2]; LV, sample x1): 1.77
Pml 1448757_at (Group G1, Modules 20) ([2]; LV, sample x1): 1.41
Pml 1456103_at (Group G1, Modules 20) ([2]; LV, sample x1): 1.31
Rnf213 1455500_at (Group G1, Modules 20) ([2]; LV, sample x1): 2.07
Rsad2 1436058_at (Group G1, Modules 20) ([2]; LV, sample x1): 2.39
